Here are results for seven molecules from US9040707B2, “Bicyclic thiazoles as allosteric modulators of mGluR5 receptors” (Janssen Pharmaceutica NV, priority 2009, dated 2015).

pEC50: −log10 of the molar value. Where only a bound is given, the exact number is not on record here.

Data set [1] deals with T1, human mGluR5a receptor (Homo sapiens, UniProt P41594).
T1 construct: host or cells: HEK293A (monoclones H10H and H12H)
The experiment in a line: Functional Assay 3: as Functional Assay 2 but clone H12H. Format: cell-based. The settings on record: for pEC50: glutamate EC20; for Emax: maximum average response at a single concentration. As for the experimental part: HEK cells transfected with the human mGluR5a receptor (H10H cell line) were plated at 15.000 cells/well in clear-bottomed poly-D-lysine-coated assay plates (BD Falcon) in glutamate-glutamine-free growth medium and incubated overnight at 37° C. and 5% CO2. The following day, the growth medium was removed and the cells were washed with assay buffer containing 1× Hank's balanced salt solution (Invitrogen, Carlsbad, Calif.), 20 mM HEPES, 2.5 mM probenecid, pH 7.4 and left with 20 μL of this reagent. Following this step, the cells were loaded with calcium indicator dye, fluo-4 AM, to a final concentration of 2 μM and incubated for 40-45 min at 37° C. The dye solution was removed and replaced with assay buffer. Cell plates were held for 10-15 min at room temperature and were then loaded into the Functional Drug Screening System 6000 (FDSS 6000, Hamamatsu, Japan).
After establishment of a fluorescence baseline for about 3 seconds, the compounds of the present invention were added to the cells, and the response in cells was measured. 2.3 minutes later an EC20 concentration of the mGluR5 receptor agonist glutamate was added to the cells, and the response of the cells was measured for about 1.7 minutes. All test compounds were dissolved and diluted to a concentration of 10 mM in 100% DMSO and then serially diluted into assay buffer for a 2× stock solution in 0.6% DMSO; stock compounds were then added to the assay for a final DMSO concentration of 0.3% after the first addition to the assay well. Calcium fluorescence measures were recorded as fold over basal fluorescence; raw data was then normalized to the maximal response to glutamate. Potentiation of the agonist response of the mGluR5 receptor in the present invention was observed as an increase in response to submaximal concentrations of glutamate in the presence of compound compared to the response to glutamate in the absence of compound.
The concentration-response curves of compounds of the present invention, obtained in the presence of EC20 of mGluR5 receptor agonist glutamate to determine positive allosteric modulation, were generated using Microsoft Excel with IDBS XLfit add-ins. The raw data file containing all time points was used as the data source in the analysis template. This was saved by the FDSS as a tab-delimitted text file. Data were normalized using a static ratio function (F/F0) for each measurement of the total 350 values per well divided by each well's initial value. Data was then reduced as to peak amplitudes (Max−Initial Min) using a time range that starts approximately 1 second after the glutamate EC20 addition and continues for approximately 40 seconds. This is sufficient time to capture the peak amplitude of the cellular calcium response. Individual amplitudes were expressed as % effect by multiplying each amplitude by 100 and then dividing the product by the mean of the amplitudes derived from the glutamate ECMax-treated wells. pEC50 values for test compounds were generated by fitting the normalized values versus the log of the test compound concentration (in mol/L) using a 4 parameter logistic equation where none of the parameters were fixed. Each of the three values collected at each concentration of test compound were weighted evenly. Individual values falling outside the 95% prediction limits of the curve fit were automatically excluded from the fit. […] These two methods are in good agreement for curves with a clear plateau at the high concentration range. […] For consistency purposes across the range of potencies observed, all Emax values reported in this application are calculated using the maximum average response at a single concentration.
Functional Assay 3 was performed under the same conditions as Functional Assay 2, except that clone H12H was used instead of clone H10H.
The clones that were used in the primary functional assay gave undiscernable differences in this assay.

Data set [2] addresses T1, human mGluR5a receptor. Description: Functional Assay 2: Ca2+ mobilization, HEK cells with human mGluR5a receptor (H10H cell line). As to conditions: HEK293; H10H cell line; maximum average response at a single concentration, relative to glutamate ECMax. The class given is cell-based. On the technique in general: Calcium assays in cells follow changes in intracellular calcium, usually with a dye or a luminescent sensor.

Data set [3] relates to amphetamine-induced hyperlocomotion. The experiment in a line: Rat hyperlocomotion assay (reversal of amphetamine-induced hyperlocomotion). Format: in vivo. The settings on record: male Sprague-Dawley rats; 3.0, 10.0, 30.0, 56.6 mg/kg p.o.; amphetamine sulphate 1.0 mg/kg s.c.; FIG. 1. As for the experimental part:
Locomotor activity was assessed as mean distance traveled (cm) in standard 16×16 photocell testing chambers measuring 43.2 cm (Length)×43.2 cm (Width)×30.5 cm (Height) (Med Associates, St. Albans, Vt.). Animals were habituated to individual activity chambers for at least 30 min prior to drug administration. Following administration of drug or vehicle, activity was recorded for a 90 minute time period. Data was expressed as the mean (±SEM) distance traveled recorded in 5 min intervals over the test period. The data was analyzed using repeated measures analysis of variance (ANOVA) followed by post-hoc testing using Dunnett's test, when appropriate. A difference was considered significant when p≦05. […]
The animals were habituated in Smart Open Field locomotor activity test chambers (Hamilton-Kinder, San Diego, Calif.) with 16×16 photobeams to automatically record locomotor activity for 30 min and then dosed with vehicle or test compound. […] At 60 min, all rats were injected subcutaneously with 1 mg/kg amphetamine or vehicle and then monitored for an additional 60 min. Animals are monitored for a total of 120 minutes. Data are expressed as changes in ambulation defined as total number of beam breaks per 5 min periods.
The data for the dose-response studies were analyzed by a between-group analysis of variance. […]

Another data set concerns the target T2, human mGluR5 receptor (Homo sapiens, UniProt P41594).
T2 construct: expressed in transfected cells; host or cells: HEK-293
Description: Functional Assay 1: intracellular Ca2+ mobilization, positive allosteric modulation of glutamate EC20 response. The class given is cell-based. The settings on record: maximum % effect relative to glutamate ECMax.

T1 sequence (P41594 21-1180 isoform P41594-2 limits assumed): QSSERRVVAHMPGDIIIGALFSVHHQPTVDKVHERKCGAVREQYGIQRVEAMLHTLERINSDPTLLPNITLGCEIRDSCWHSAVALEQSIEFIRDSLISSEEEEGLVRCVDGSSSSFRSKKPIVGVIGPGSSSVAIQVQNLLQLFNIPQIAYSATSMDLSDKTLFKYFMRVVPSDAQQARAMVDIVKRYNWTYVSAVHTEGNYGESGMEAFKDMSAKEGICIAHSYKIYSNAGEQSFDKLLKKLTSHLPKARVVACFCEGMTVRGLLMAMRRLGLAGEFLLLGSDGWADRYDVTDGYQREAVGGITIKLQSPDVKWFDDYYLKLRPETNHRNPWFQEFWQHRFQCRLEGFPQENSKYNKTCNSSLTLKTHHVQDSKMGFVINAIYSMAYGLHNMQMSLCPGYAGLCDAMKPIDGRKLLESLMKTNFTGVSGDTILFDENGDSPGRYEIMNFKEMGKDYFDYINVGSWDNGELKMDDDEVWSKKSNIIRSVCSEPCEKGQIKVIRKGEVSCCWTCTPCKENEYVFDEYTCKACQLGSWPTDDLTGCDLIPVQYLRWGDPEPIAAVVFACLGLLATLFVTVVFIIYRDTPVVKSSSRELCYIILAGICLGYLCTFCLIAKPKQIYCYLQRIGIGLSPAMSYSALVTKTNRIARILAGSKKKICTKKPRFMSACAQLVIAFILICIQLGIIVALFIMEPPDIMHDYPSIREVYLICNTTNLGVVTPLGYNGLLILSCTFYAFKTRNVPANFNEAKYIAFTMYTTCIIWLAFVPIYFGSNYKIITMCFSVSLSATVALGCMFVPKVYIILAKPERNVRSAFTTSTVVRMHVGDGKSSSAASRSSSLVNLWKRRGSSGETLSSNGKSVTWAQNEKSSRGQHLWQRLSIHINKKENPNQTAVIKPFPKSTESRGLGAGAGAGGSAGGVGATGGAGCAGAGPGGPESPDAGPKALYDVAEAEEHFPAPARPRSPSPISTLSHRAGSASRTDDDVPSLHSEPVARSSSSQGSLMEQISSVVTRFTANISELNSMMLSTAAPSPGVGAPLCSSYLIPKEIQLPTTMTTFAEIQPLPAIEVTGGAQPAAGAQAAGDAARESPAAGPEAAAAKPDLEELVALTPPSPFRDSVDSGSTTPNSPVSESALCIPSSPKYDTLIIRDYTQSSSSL
T2 sequence (P41594 21-1180 isoform P41594-2 limits assumed): as above
Description for human mGluR5 receptor: HEK-293 cells were stable transfected with human mGluR5a cDNA in expression vector pcDNA4/TO. For Assay 1, these human mGluR5 receptor over-expressing HEK-293 cells were grown at a density of 40,000 cells/well in PDL-coated 384-well plates. The following day, cells were preloaded with the calcium-sensing dye Fluo-4 AM and various concentrations of test compound were added in the absence of exogenous glutamate to test for direct agonist activity. Shortly (2.5 min) thereafter, an EC20 equivalent of glutamate (˜0.2 μM) was added. The fluorescence signal was monitored using a Hamamatsu Functional Drug Screening System (FDSS) fluorescence plate reader following the addition of compound alone (direct agonist response) and then the further addition of an EC20 of glutamate (positive allosteric modulation response). The pEC50 was defined as the negative log of the test compound concentration which produced an increase in the glutamate EC20-mediated response that was 50% of maximum. Individual amplitudes were expressed as % effect by multiplying each amplitude by 100 and then dividing the product by the mean of the amplitudes derived from the glutamate ECMax-treated wells. Emax values reported in this application are defined as the maximum % effect obtained in a concentration-response curve.

What is called pEC50 is the EC50 on a negative log10 scale, so that one unit is a factor of ten. For orientation: Emax means the greatest response seen or fitted, relative to the assay's reference. A word on the melting point: it is the temperature, or range, at which the solid turns liquid. Take `C[C@@H](N1CCc2nc(COc3cccc(F)c3)sc2C1=O)C(C)(C)C` [Compound 7, 2-[(3-fluorophenoxy)methyl]-6,7-dihydro-5-[(1R)-1,2,2-trimethylpropyl]-thiazolo[5,4-c]pyridin-4(5H)-one]: the melting point is 87.2 to 87.8 °C. Further, at human mGluR5a receptor [1], the pEC50 is 5.85 and the Emax amounted to 57%.
With `CN1CCc2nc(COc3ccccc3)sc2C1=O` [Compound 8, 6,7-dihydro-5-methyl-2-(phenoxymethyl)-thiazolo[5,4-c]pyridin-4(5H)-one], the maximal response (Emax) stood at 77% on human mGluR5a receptor [2] and 88% at human mGluR5 receptor. The “reversal of amphetamine-induced hyperlocomotion” value in data set [3] is “dose-dependent reversal effects”.
Turning to `O=C1c2sc(COc3ccccc3)nc2CCN1c1ccc(F)cc1` [Compound 9, 5-(4-fluorophenyl)-6,7-dihydro-2-(phenoxymethyl)-thiazolo[5,4-c]pyridin-4(5H)-one], at human mGluR5a receptor [1], the negative logarithm of the EC50 (pEC50) is 6.95 and the Emax came out at 79%.
On the same counts, the results for `O=C1c2sc(COc3cccc(F)c3)nc2CCN1c1ccc(F)cc1F` [Compound 28, 5-(2,4-difluorophenyl)-2-[(3-fluorophenoxy)methyl]-6,7-dihydro-thiazolo[5,4-c]pyridin-4(5H)-one] are 7.07 and 63%.
In turn, `O=C1c2sc(OCc3cccc(F)c3)nc2CCN1c1cccc(C(F)(F)F)c1` [Compound 30, 2-[(3-fluorophenyl)methoxy]-6,7-dihydro-5-[3-(trifluoromethyl)phenyl]-thiazolo[5,4-c]pyridin-4(5H)-one] yielded a melting point of 108.2 to 108.9 °C. For the same molecule, on human mGluR5a receptor [1], the pEC50 was 6.03 and the Emax was 58%.
With `C[C@@H](N1CCc2nc(COc3ccccc3)sc2C1=O)C(C)(C)C` [Compound 35, 6,7-dihydro-2-(phenoxymethyl)-5-[(1R)-1,2,2-trimethylpropyl]-thiazolo[5,4-c]pyridin-4(5H)-one], on human mGluR5a receptor [1], the pEC50 was 6.10 and the maximal effect (Emax) was 60%.
Regarding `C[C@@H](N1CCc2nc(OCc3cccc(F)c3)sc2C1=O)C(C)(C)C` [Compound 77, 2-[(3-fluorophenyl)methoxy]-6,7-dihydro-5-[(1R)-1,2,2-trimethylpropyl]-thiazolo[5,4-c]pyridin-4(5H)-one], on human mGluR5a receptor [1], the pEC50 is < 4.52 and the Emax came out at 21%.
